From article PMC11904033, “Lanatoside C activates the E3 ligase STUB1 to inhibit FOXP3 transcriptional activity and promote antitumor immunity” (EMBO Molecular Medicine, 2025)

Tests used:
[1] = target: T1, STUB1 TPR domain (STUB1 1-130) (Homo sapiens, UniProt Q9UNE7); assay: isothermal titration calorimetry; format: binding; conditions: read-out: Ka (converted)
T1 construct: N-terminal TPR domain, residues 1-130; ITC: His-tagged from E. coli BL21 (pET-T7-STUB1 1-130-His); thermal shift and point mutants: 1-130-3xFlag6xHis expressed in 293T cells
T1 sequence (Q9UNE7 1-130): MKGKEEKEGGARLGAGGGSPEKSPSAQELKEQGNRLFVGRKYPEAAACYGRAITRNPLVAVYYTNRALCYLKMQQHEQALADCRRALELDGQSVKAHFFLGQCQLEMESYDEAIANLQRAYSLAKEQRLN

STUB1 = target: T2, STUB1 (Homo sapiens, UniProt Q9UNE7); assay: thermal shift in […] lysate (immunoblot); DARTS; format: biochemical; conditions: 10 uM Lac for 30 min in thermal shift; 30 uM Lac for 3 h in DARTS
T2 construct: full length (303 residues), HA-tagged, ectopically expressed in 293T cells, lysate
T2 sequence (Q9UNE7 1-303): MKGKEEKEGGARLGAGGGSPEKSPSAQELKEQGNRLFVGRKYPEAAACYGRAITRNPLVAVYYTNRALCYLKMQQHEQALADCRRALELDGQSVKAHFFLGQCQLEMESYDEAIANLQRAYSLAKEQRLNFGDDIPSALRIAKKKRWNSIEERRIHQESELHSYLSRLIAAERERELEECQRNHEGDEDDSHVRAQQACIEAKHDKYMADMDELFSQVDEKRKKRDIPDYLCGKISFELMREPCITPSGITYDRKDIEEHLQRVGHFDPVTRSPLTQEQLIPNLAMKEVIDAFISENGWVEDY

## CC(=O)O[C@H]1C[C@H](O[C@H]2[C@@H](O)C[C@H](O[C@H]3[C@@H](O)C[C@H](O[C@H]4CC[C@@]5(C)[C@H](CC[C@@H]6[C@@H]5C[C@@H](O)[C@]5(C)[C@@H](C7=CC(=O)OC7)CC[C@]65O)C4)O[C@@H]3C)O[C@@H]2C)O[C@H](C)[C@H]1O[C@@H]1O[C@H](CO)[C@@H](O)[C@H](O)[C@H]1O [Lanatoside C]
[1]
  Kd: 7.69 µM
STUB1
  thermal shift: Lac directly bound STUB1 as revealed in the thermal shift assay
